Results taken from ChEMBL document CHEMBL4251578, “Design, synthesis and biological evaluation of novel 2-aminobenzamides containing dithiocarbamate moiety as histone deacetylase inhibitors and potent antitumor agents” (Eur J Med Chem, 2018).

Key:
[1] = test system: HeLa; assay: Antiproliferative activity against human HeLa cells at 2 uM after 72 hrs by CCK-8 assay relative to control; assay type: functional
[2] = test system: HeLa; assay: Antiproliferative activity against human HeLa cells after 72 hrs by CCK-8 assay; assay type: functional, cell-based
[3] = test system: SMMC-7721; assay: Antiproliferative activity against human SMMC7721 cells after 72 hrs by CCK-8 assay; assay type: functional, cell-based; details: for IC50: SMMC-7721, 72 h
[4] = test system: NCI-H1299; assay: Antiproliferative activity against human NCI-H1299 cells after 72 hrs by CCK-8 assay; assay type: functional, cell-based; details: for IC50: NCI-H1299, 72 h
[5] = molecular target: Histone deacetylase; assay: Inhibition of HDAC in human HeLa cell extract using Fluor de Lys-Green as substrate preincubated for 5 mins followed by substrate addition and measured after 1 hr by fluorescence assay; assay type: protein assay
[6] = molecular target: Histone deacetylase 1 (Homo sapiens, UniProt Q13547); assay: Inhibition of human recombinant HDAC1 using Fluor de Lys-Green as substrate preincubated for 5 mins followed by substrate addition and measured after 1 hr by fluorescence assay
Chain of Histone deacetylase 1 (Q13547 whole entry): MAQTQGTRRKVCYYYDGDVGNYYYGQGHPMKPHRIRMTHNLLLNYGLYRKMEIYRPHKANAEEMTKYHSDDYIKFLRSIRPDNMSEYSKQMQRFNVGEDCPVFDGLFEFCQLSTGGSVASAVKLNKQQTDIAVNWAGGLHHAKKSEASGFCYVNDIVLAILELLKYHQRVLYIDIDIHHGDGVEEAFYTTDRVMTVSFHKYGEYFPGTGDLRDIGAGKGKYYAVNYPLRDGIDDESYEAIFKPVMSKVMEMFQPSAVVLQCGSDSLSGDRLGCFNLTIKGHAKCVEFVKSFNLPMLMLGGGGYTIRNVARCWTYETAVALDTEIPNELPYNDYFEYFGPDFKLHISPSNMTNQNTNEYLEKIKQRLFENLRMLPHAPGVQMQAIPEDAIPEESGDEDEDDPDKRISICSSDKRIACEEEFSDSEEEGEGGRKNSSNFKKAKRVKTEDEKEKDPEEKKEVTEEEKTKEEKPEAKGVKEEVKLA

[7] = molecular target: T1, Protein deacetylase HDAC6 (Homo sapiens, UniProt Q9UBN7); assay: Inhibition of human recombinant HDAC6 using Fluor de Lys-Green as substrate preincubated for 5 mins followed by substrate addition and measured after 1 hr by fluorescence assay
T1 sequence (Q9UBN7 whole entry): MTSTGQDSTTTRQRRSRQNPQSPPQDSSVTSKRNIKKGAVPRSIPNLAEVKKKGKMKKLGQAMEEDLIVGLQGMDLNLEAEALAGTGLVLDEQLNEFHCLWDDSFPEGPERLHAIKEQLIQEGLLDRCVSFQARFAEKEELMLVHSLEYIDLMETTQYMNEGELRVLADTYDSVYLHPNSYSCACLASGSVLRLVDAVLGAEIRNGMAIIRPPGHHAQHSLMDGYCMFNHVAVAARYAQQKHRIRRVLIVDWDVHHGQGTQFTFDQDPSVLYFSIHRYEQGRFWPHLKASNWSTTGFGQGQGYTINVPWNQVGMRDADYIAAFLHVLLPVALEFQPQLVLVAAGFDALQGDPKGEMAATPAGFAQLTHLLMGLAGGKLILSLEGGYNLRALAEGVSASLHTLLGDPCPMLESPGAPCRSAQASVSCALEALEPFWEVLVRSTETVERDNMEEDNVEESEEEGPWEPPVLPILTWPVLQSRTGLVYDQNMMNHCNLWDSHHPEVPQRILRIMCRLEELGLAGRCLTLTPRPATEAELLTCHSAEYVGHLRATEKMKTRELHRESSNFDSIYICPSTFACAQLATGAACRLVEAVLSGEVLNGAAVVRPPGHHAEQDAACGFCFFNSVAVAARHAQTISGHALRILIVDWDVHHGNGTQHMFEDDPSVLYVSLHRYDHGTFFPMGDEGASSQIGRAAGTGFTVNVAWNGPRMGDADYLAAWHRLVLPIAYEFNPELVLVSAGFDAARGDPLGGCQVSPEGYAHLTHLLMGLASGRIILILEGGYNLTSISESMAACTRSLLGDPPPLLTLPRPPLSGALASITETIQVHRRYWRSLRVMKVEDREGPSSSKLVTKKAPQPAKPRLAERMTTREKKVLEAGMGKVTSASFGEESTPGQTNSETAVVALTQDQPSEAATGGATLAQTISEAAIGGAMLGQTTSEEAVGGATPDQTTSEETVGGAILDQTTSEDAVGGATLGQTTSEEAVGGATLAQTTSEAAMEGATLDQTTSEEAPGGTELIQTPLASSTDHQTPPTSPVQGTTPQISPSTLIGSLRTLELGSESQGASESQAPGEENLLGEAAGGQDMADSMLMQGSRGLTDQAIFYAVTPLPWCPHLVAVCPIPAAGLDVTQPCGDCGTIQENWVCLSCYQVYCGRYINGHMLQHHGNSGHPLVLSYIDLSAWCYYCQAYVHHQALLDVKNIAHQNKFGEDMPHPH

[8] = test system: SMMC-7721; assay: Induction of apoptosis in human SMMC7721 cells assessed as early apoptotic cells at 0.125 umol/L after 72 hrs by Alexa Fluor 488 Annexin/propidium iodide staining-based flow cytometric analysis (reference value: 0.09%); assay type: functional
[9] = test system: SMMC-7721; assay: Induction of apoptosis in human SMMC7721 cells assessed as late apoptotic cells at 1 umol/L after 72 hrs by Alexa Fluor 488 Annexin/propidium iodide staining-based flow cytometric analysis (reference value: 0.29%); assay type: functional
[10] = test system: SMMC-7721; assay: Cell cycle arrest in human SMMC7721 cells assessed as accumulation of cells at S phase at 1 umol/L after 72 hrs by propidium iodide staining-based flow cytometric analysis (reference value: 5.21%); assay type: functional
[11] = test system: SMMC-7721; assay: Cell cycle arrest in human SMMC7721 cells assessed as accumulation of cells at […] phase after 72 hrs by propidium iodide staining-based flow cytometric analysis; assay type: functional

IC50 [2] | IC50 [3] | IC50 [4] | IC50 [5] | IC50 [6] | IC50 [7] | Compound | inhibition at 2 µM [1] | Activity [2] | Activity [3] | Activity [4] | Activity [8] | Activity [9] | Activity [10] | Activity [11]
790 nM | 1340 nM | 2490 nM | 720 nM | 480 nM | > 40000 nM | Nc1ccccc1NC(=O)c1ccc(CSC(=S)N2CCN(c3ccncc3)CC2)cc1 | 77% | Dose-dependent effect | Dose-dependent effect | Dose-dependent effect | 3.66% | 11.06% | 7.04% | –
1040 nM | 1210 nM | 750 nM | 1800 nM | 1380 nM | > 40000 nM | CCN(Cc1ccncc1)C(=S)SCc1ccc(C(=O)Nc2ccccc2N)cc1 | 63.5% | – | – | – | 2.75% | 14.06% | 7.45% | Dose-dependent effect
1460 nM | 1200 nM | 980 nM | – | 2570 nM | > 40000 nM | Nc1ccccc1NC(=O)c1ccc(CSC(=S)N2CCc3ccccc3C2)cc1 | 54.4% | – | – | – | 14.71% | 12.44% | 9.25% | Dose-dependent effect
